Measurements published in patent US6376169B1, “Method for diagnosing a vascular condition” (Queens University at Kingston, priority 1998, dated 2002).

Assays:
Type in all cases: cell-based, human
uPAR mRNA = assay: Northern blot of uPAR mRNA in HTR-8/SVneo cells; details: 24 h
Description: To determine whether hypoxia regulates the expression of certain genes (e.g., PAI-1, uPAR, RTP/Drg1) via an iron-containing heme protein, cells were cultured for up to 72 h at 20% oxygen in the presence or absence of either 100 μM cobalt chloride, or 30 mM sodium 4,5-dihydroxybenzene-1,3-disulfonate (Tiron), or 100 μM desferrioxamine mesylate (DFO) (Sigma Chemical CO., St. Louis, Mo.). Further confirmation of the role of a heme protein in hypoxic responses can be achieved by culturing cells under hypoxia in the presence of carbon monoxide, which maintains the heme protein in the oxy state and thereby blocks heme protein-mediated hypoxic responses. […]
Northern Blot Analysis. Total RNA was isolated from cell lines as described above. […] RNA was transferred to nylon membranes (Micron Separations, Inc., Westboro, Mass.). […] The hybridization solution contained 6×SSC, 0.5% SDS, 100 μg/mL denatured salmon sperm DNA, 50% formamide and cDNA probe. After hybridization, the membranes were washed with 2×SSC and 0.5% SDS at room temperature for 15 min, 2×SSC and 0.1% SDS at room temperature for 15 min, and 0.1×SSC and 0.5% SDS for 30 min. Dupont Reflection NEF film (Dupont Canada, Inc., Mississauga, ON) was exposed to the membranes for 1-3 days at −80° C. Bands on radiographic film were analyzed using a SigmaGel gel analysis software package (Jandel Scientific Software, San Rafael, Calif.).

RTP/Drg1 protein = assay: Western blot of RTP/Drg1 protein in MDA-MB-231 cells; details: for levels of RTP/Drg1 protein: 20% oxygen, up to 72 h, 100 μM cobalt chloride, 30 mM Tiron or 100 μM DFO; for reduction in RTP/Drg1 protein levels (hypoxic up-regulation), densitometry: 1% oxygen + 30% CO, 24 h; for effect of CO on up-regulation of RTP/Drg1 protein induced by cobalt chloride, Tiron and DFO: hypoxic conditions with CO
Description: To determine whether hypoxia regulates the expression of certain genes (e.g., PAI-1, uPAR, RTP/Drg1) via an iron-containing heme protein, cells were cultured for up to 72 h at 20% oxygen in the presence or absence of either 100 μM cobalt chloride, or 30 mM sodium 4,5-dihydroxybenzene-1,3-disulfonate (Tiron), or 100 μM desferrioxamine mesylate (DFO) (Sigma Chemical CO., St. Louis, Mo.). Further confirmation of the role of a heme protein in hypoxic responses can be achieved by culturing cells under hypoxia in the presence of carbon monoxide, which maintains the heme protein in the oxy state and thereby blocks heme protein-mediated hypoxic responses. Thus, cells were also cultured for 24 h at 37° C. under hypoxic conditions in the presence of 30% carbon monoxide.
Western Blot Analysis. To examine levels of RTP/Drg1 protein, cells were lysed with buffer containing 40 mM HEPES pH 7.2, 100 mM NaCl, 20% glycerol, 0.1 mM EDTA pH 8.0, 0.2% Triton X-100 (polyoxyethylene (10) isooctylphenyl ether), 1 mM DTT, and 2 mM PMSF, and centrifuged briefly at 4° C. The supernatants were collected and stored at −80° C. until use. SDS-PAGE was performed and resolved proteins were transferred to Immobilon-P membranes (Millipore Corp., Bedford, Mass.) using a semi-dry transfer cell (Bio-Rad Laboratories, Mississauga, ON). Membranes were blocked by incubation overnight at 4° C. in a PBS-buffered solution containing 0.01% Tween 20 (polyoxyethylene(20) sorbitan monolaurate) (PBS-T) and 5% casein. The blots were then incubated with polyclonal rabbit anti-Drg1 antiserum followed by incubation with a peroxidase labeled goat anti-rabbit IgG secondary antibody (Vector Lab. Inc., Burlingame, Calif.). Antigen was detected by enhanced chemiluminescence (ECL, Amersham Canada Inc., Oakville, ON) and exposure of the membrane onto Dupont Reflection NEF film (Dupont Canada, Inc., Mississauga ON).

HTR-8/SVneo cells = assay: In vitro invasion of HTR-8/SVneo cells through Matrigel; details: for increase in invasion: 20% oxygen, 100 μM cobalt chloride or 30 mM Tiron; for Invasion Index (%) ± SE: standard = 100
Description: In vitro invasion assay. An assay which employs reconstituted basement membrane (Matrigel; Collaborative Biomedical Products, Bedford, Mass.) as the substrate for invasion was used to determine the effect of hypoxia on the invasiveness of tumor cells. Costar Transwell inserts (6.5 mm diameter polycarbonate membrane, 8 μm pore; Corning Costar Corp., Cambridge, Mass.) were coated with 100 μl of a 1 mg/ml solution of Matrigel diluted in cold serum-free culture medium, placed in the wells of a 24-well tissue culture plate and allowed to air-dry for 12 h in a laminar flow cabinet. After reconstituting the Matrigel by incubating for 1 h with 100 μl of serum-free medium, 5.0×10^4 cells in 100 μl aliquots of serum-containing medium were added to the Transwells. […] Cells which invaded through the Matrigel and the pores of the underlying membrane were fixed for 10 min in Carnoy's fixative (25% acetic acid, 75% methanol) and stained for 3 h in 1% toluidine blue, 1% sodium borate. Following several washes in tap water, the membranes were removed with a small scalpel blade, placed on a microscope slide and coverslipped. The invasion index' was then determined by counting, under a microscope, the total number of stained cells in the underside of the polycarbonate membranes.
Alternatively, cells (e.g., HTR-8/SVneo, MDA-MB-231) were labeled by incubation for 24 h in the presence of 10 μCi/ml [^3H]-thymidine. The cells were then harvested, adjusted to a concentration of 5.0×10^5/ml, and 100 μl aliquots added in triplicate to the upper wells of the invasion chambers. After a 24-h incubation, cells in the upper and lower compartments of the chambers were harvested. The invasion index, reflecting the percentage of added cells which had invaded the Matrigel was determined by measurement of the radioactivity in the upper and lower compartments, as well as in the membrane.

[1] = standard (20% O2) conditions with compound

## O=S(=O)([O-])c1cc(O)c(O)c(S(=O)(=O)[O-])c1.[Na+].[Na+] [Tiron, sodium 4,5-dihydroxybenzene-1,3-disulfonate]
uPAR mRNA; [1]
  increase in uPAR mRNA vs standard conditions alone: > 10 fold
RTP/Drg1 protein
  levels of RTP/Drg1 protein: time-dependent increases in RTP/Drg1 protein
HTR-8/SVneo cells
  increase in invasion: 29.3±12.7%
HTR-8/SVneo cells; Standard (20% O2) + compound
  Invasion Index (%) ± SE: 129.3 ± 12.7%

## [C-]#[O+] [carbon monoxide]
uPAR mRNA; 1% O2 + 20% carbon monoxide
  reduction of hypoxia-mediated increase in uPAR mRNA: 35%
uPAR mRNA; hypoxic (1% O2) conditions in the presence of 20% carbon monoxide
  increase in uPAR mRNA vs standard conditions alone: 1.8 fold
RTP/Drg1 protein
  reduction in RTP/Drg1 protein levels (hypoxic up-regulation), densitometry: abrogated
  effect of CO on up-regulation of RTP/Drg1 protein induced by cobalt chloride, Tiron and DFO: did not inhibit
RTP/Drg1 protein; listed as CO
  reduction in RTP/Drg1 protein levels (hypoxic up-regulation), densitometry: 57%
  effect of CO on up-regulation of RTP/Drg1 protein induced by cobalt chloride, Tiron and DFO: unable to inhibit
HTR-8/SVneo cells; 1% oxygen + 20% carbon monoxide
  inhibition of hypoxia-stimulated invasion: 87%
HTR-8/SVneo cells; Hypoxia (1% O2) + 20% CO
  Invasion Index (%) ± SE: 104.0 ± 8.5%

## [Cl][Co][Cl] [cobalt chloride]
uPAR mRNA; [1]
  increase in uPAR mRNA vs standard conditions alone: 3.5 fold
RTP/Drg1 protein
  levels of RTP/Drg1 protein: time-dependent increases in RTP/Drg1 protein
HTR-8/SVneo cells
  increase in invasion: 24.6±8.4%
HTR-8/SVneo cells; Standard (20% O2) + compound
  Invasion Index (%) ± SE: 124.6 ± 8.4%
